Consider two compounds from US20100022639A1, “Methods of Inducing Weight Loss” (The Johns Hopkins University School of Medicine Licensing …, priority 2000, published 2010).

Experiment [1] concerns feeding behavior. As to the kind of experiment: Reversal of C-75 feeding inhibition by intracerebroventricular NPY. Particulars: 500 ng NPY ICV. The format is in vivo, mice. How it is done:
To confirm this finding, the capacity of NPY to reverse C-75-induced inhibition of feeding was examined. Mice were pretreated with 30_mg/kg of C-75 by I.P. injection. After 4 hours, mice were anaesthetized by inhaled metofane and given a direct intracerebroventricular injection of 500_ng NPY (2.5 μl total volume) or artificial CSF vehicle. Mice were placed into metabolic cages and observed for feeding behavior and monitored for food intake over 18 hours.

In experiment [2] the test system is feeding behavior. Put plainly: ICV TOFA pretreatment and feeding inhibition by IP C-75. Particulars: 2 μg TOFA ICV, 2 hours later 15 mg/kg C-75 IP, food intake over 2 hours. It is filed as in vivo, BALB/c mice. The protocol: This model predicts that feeding inhibition by FAS inhibitors should be attenuated by inhibitors of ACC's. To test this, mice were pretreated with the ACC inhibitor TOFA or vehicle by ICV injection and examined the ability of C-75, administered IP, to inhibit feeding. BALB/c mice were anesthetized with metofane and injected ICV with 2 μg of TOFA or DMSO vehicle. After 2 hours recovery, mice were injected IP with 15 mg C-75/kg or RPMI vehicle and monitored for total food intake over 2 hours. […] In addition, mice were anesthetized and injected ICV with 2 μl of RPMI or C-75 at 2.5 or 5 μg/μl and food intake monitored over 2 (shaded) and 4 (solid) hours. The efficacy of centrally administered TOFA argues for a central (CNS) mechanism of action. ICV administration of C-75 inhibited feeding by 82% (FIG. 5C), supporting the central target action of C-75. FIGS. 5(B) and (C) combine results from 3 experiments with N=3 for each (9 total).

For experiment [3], the system named is acetyl CoA carboxylase (ACC). The settings on record: previous studies; cited from earlier work.

Take “NPY: neuropeptide Y, anabolic neuropeptide produced in the hypothalamus that strongly stimulates feeding; injected ICV”: in the experiment on feeding behavior [1] (mice pretreated with vehicle or C-75), the “feeding behavior after ICV injection” value is on record as “rapidly led to voracious feeding”. Further, in the experiment with feeding behavior [1] (monitored over 18 hours), the “total food intake in C-75-treated mice” value was “substantially elevate the total food intake”.
As to `CCCCCCCCCCCCCCOc1ccc(C(=O)O)o1` [TOFA], the “food intake in C-75-treated mice after TOFA pretreatment” value with feeding behavior [2] was “largely restored food intake”. Moreover, in experiment [3], the “effect on fatty acid synthesis” value is on record as “inhibition of fatty acid synthesis” and the effect on feeding entry is listed as “did not inhibit feeding”.
